Source: patent US8956677B2, “High-potency sweetener composition with glucosamine and compositions sweetened therewith” (The Coca-Cola Company, priority 2005, dated 2015)

Test: Sensory evaluation of sweetness linger and sugar-like taste by a panel of experts
Format: in vivo
Set-up: key: 0=no sweetness linger; 1=very slight sweetness linger; 2=slight sweetness linger; 3=moderate sweetness linger; 4=moderately high sweetness linger; 5=high sweetness linger
Procedure: As used herein, the phrases “sugar-like characteristic,” “sugar-like taste,” “sugar-like sweet,” “sugary,” and “sugar-like” are synonymous. […] These characteristics are dimensions in which the taste of sucrose is different from the tastes of natural and synthetic high-potency sweeteners. Whether or not a characteristic is more sugar-like is determined by expert sensory panel assessments of sugar and compositions comprising at least one natural and/or synthetic high-potency sweetener, both with and without a sweet taste improving composition. Such assessments quantify similarities of the characteristics of compositions comprising at least one natural and/or synthetic high-potency sweetener, both with and without a sweet taste improving composition, with those comprising sugar. Suitable procedures for determining whether a composition has a more sugar-like taste are well known in the art.
In a particular embodiment, a panel of assessors is used to measure the reduction of sweetness linger. Briefly described, a panel of assessors (generally 8 to 12 individuals) is trained to evaluate sweetness perception and measure sweetness at several time points from when the sample is initially taken into the mouth until 3 minutes after it has been expectorated. […] A decrease in score for a time point measured after the sample has cleared the mouth indicates there has been a reduction in sweetness perception.
The panel of assessors may be trained using procedures well known to those of ordinary skill in the art. In a particular embodiment, the panel of assessors may be trained using the Spectrum™ Descriptive Analysis Method (Meilgaard et al, Sensory Evaluation Techniques 3rd edition, Chapter 11). […]
Sensory evaluation of the samples prepared in Example Set G was carried out under the following protocol, similar to that described hereinabove. […] Immediately upon sensing maximal sweetness, the sample was expectorated, the mouth was rinsed with water and the rate of sweetness decay (“Sweetness Linger”) was measured, where attention was focused on the sweetness 3-4 min after the water rinse. […]

rebaudioside A
5: sweetness linger (400 ppm REBA in citric acid/potassium citrate composition equivalent to that in a diet lemon-lime beverage, with or without additive, scale 0-5, sweetness 3-4 min after water rinse) | sweetness linger (500 ppm REBA in carbon-treated water, phosphoric acid (75%) to pH 2.4-2.5, with or without additive, scale 0-5) | Sweetness Linger rating defined for controls (scale anchors defined by the protocol, REBA control sample at 500 ppm)
